US5916785A, “Process of oxidizing alcohols or carboxylic acids with alcohol/aldehyde dehydrogenase from gluconobacter” (Roche Vitamins Inc., priority 1992, dated 1999)

Legend:
AADH [1] = assay: Effect of inhibitors on the enzyme activity; format: biochemical, Gluconobacter oxydans DSM No. 4025; conditions: standard DCIP/PMS assay
AADH [2] = assay: Measurement of the Km (Michaelis constant) values, DCIP/PMS enzyme assay; format: biochemical, Gluconobacter oxydans DSM No. 4025; conditions: mixture of DCIP and PMS as electron acceptors; 25° C., pH 8.0; read-out: apparent Michaelis constant (Km)
AADH [3] = assay: Effect of metal ions on the enzyme activity; format: biochemical, Gluconobacter oxydans DSM No. 4025; conditions: standard DCIP/PMS assay
From the text: Using the assay procedure described under section 1), the effect of various metal ions on the enzyme activity was examined. […] The others affected the enzyme activity strongly or moderately.

AADH [4] = conditions: substrate used instead of L-sorbose
Protocol: The enzyme assay was performed at 25° C. by measuring the decrease of absorbance at 600 nm of DCIP with a spectrophotometer (UVIKON 810, Kontron K.K.). One unit of the enzyme activity was defined as the amount of the enzyme which catalyzed the reduction of 1 μmole of DCIP per minute. The extinction coefficient of DCIP at pH 8.0 was taken as 15 mMol^-1. The standard reaction mixture (1.0 ml) contained 0.1 mMol DCIP, 1 mMol PMS, 125 mMol L-sorbose, 50 mMol Tris-malate-NaOH buffer (pH 8.0), and 3-8 μl of the enzyme solution. A reference cuvette contained all the above components except the substrate.
The substrate specificity of AADH was determined using the same enzyme assay method as described under section 1) above, except that various further substrates were used instead of L-sorbose.

Row | effect of metal ions on the AADH enzyme activity (AADH [3]) | Structure (SMILES) | other results
1 | did not affect | [Ca+2] [Ca^2+] | 
2 | strong inhibitors | [Fe+3] [Fe^3+] | 
3 | did not affect | [Mg+2] [Mg^2+] | 
4 | strong inhibitors | [Cu+2] [Cu^2+] | 
5 | strong inhibitors | [Mn+2] [Mn^2+] | 

Second part, the compound before the results:

Row | Structure (SMILES) | effect of metal ions on the AADH enzyme activity (AADH [3]) | other results
6 | O=C(O)CN(CCN(CC(=O)O)CC(=O)O)CC(=O)O [EDTA, Ethylenediamine tetraacetic acid] |  | effect of inhibitors on the AADH enzyme activity (AADH [1]): strongly inhibited
7 | CCCO [1-propanol] |  | Km (AADH [2]): 2000 µM
8 | CO [methanol] |  | oxidation as substrate by AADH (AADH [4]): hardly oxidizes
9 | O=C(O)CN(CCOCCOCCN(CC(=O)O)CC(=O)O)CC(=O)O [EGTA, ethylene glycol bis(beta-aminoethylether)-N,N,N',N'-tetraacetic acid] |  | effect of inhibitors on the AADH enzyme activity (AADH [1]): strongly inhibited
10 | CCO [ethanol] |  | oxidation as substrate by AADH (AADH [4]): good substrate
